{"source": "paper PMC7614683", "about": "“A small molecule PI3Kα activator for cardioprotection and neuroregeneration” (Nature, 2023)", "key": {"PI3Kα N345K mutant": {"target": "T1, PI3Kα N345K mutant (Homo sapiens, UniProt P42336, N345K)", "T1 construct": "Full-length human p110α was expressed either in a complex with full-length human p85α (for HTS, biochemistry and HDX-MS); 6xHis tag followed by TEV protease site (N); host or cells: Sf9, baculovirus", "T1 sequence (P42336 whole entry N345K)": "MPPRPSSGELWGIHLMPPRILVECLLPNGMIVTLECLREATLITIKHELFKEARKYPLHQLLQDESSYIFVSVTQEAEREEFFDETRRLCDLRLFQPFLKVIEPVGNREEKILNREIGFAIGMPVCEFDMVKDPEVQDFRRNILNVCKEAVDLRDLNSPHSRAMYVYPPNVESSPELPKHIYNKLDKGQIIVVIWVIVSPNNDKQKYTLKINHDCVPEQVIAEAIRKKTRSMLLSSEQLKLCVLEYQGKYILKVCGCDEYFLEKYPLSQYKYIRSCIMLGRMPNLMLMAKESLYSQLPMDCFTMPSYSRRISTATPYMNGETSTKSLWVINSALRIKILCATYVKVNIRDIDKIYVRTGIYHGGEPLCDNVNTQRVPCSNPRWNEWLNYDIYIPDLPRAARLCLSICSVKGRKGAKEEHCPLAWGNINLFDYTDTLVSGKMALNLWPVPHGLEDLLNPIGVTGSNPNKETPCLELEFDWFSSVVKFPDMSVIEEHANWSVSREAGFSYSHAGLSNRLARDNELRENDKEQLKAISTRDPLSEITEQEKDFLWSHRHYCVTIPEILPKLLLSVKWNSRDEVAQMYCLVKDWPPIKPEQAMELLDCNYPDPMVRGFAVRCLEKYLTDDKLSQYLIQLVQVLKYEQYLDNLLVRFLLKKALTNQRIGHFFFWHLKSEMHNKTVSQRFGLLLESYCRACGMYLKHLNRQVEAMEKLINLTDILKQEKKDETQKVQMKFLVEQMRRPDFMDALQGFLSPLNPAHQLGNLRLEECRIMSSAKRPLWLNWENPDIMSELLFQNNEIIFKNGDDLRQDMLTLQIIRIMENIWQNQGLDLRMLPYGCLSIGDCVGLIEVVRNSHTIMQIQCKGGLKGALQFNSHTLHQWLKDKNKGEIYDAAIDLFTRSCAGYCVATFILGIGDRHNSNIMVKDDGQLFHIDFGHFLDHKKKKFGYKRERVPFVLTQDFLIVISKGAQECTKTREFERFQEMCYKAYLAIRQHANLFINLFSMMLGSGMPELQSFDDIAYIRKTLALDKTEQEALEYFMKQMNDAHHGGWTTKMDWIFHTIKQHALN", "T1 sequence (P27986 whole entry partner)": "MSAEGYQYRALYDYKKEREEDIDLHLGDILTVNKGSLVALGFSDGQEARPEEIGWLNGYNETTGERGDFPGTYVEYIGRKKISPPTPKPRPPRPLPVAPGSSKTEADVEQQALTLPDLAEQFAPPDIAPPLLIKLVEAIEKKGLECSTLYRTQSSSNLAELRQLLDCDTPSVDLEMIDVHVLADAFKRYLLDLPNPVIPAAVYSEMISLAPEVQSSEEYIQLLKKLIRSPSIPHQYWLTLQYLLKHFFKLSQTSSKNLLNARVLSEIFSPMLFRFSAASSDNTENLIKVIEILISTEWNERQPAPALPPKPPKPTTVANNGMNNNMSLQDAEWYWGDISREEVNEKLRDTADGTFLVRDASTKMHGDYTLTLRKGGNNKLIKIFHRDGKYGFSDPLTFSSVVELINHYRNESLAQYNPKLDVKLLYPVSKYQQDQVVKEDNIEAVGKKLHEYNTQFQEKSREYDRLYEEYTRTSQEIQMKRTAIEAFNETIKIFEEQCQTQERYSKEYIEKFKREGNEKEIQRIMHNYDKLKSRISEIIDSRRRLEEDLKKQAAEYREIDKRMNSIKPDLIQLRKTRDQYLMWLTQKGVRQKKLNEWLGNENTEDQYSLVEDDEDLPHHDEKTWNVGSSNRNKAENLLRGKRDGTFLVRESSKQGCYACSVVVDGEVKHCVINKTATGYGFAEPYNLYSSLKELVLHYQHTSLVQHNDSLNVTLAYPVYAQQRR", "assay": "ADP-Glo catalytic activity, oncogenic mutant N345K", "format": "biochemical", "procedure": "Expression and purification of wild-type p110α (Cambridge MRC Laboratory for Molecular Biology (LMB-MRC) plasmid number OP831) in a complex with full-length p85α (LMB-MRC plasmid OP809) was performed as described. The oncogenic mutants G106V (LMB-MRC plasmid JB35), N345K (LMB-MRC plasmid OP661) and E545K (LMB-MRC plasmid OP663) were also purified using this protocol. Briefly, 10 litres of Spodoptera frugiperda (Sf9) cell culture at a density of 1.0 x 10^6 cells/ml were co-infected with a p85α-encoding virus [LMB-MRC plasmid OP809]. and a virus encoding p110α with an N-terminal 6xHis tag followed by a tobacco etch virus (TEV) protease site [LMB-MRC plasmid OP831]. After a 48 h infection at 27°C, cells were harvested and washed with PBS. […]\nFor characterisation of the effects of 1938 on in vitro PI3K enzymology, all reactions were performed at room temperature with 384 white-polystyrene plates (Corning #3574). […] Data was expressed as velocity (nmol of ADP generated/nmol of enzyme/sec). […] Luminescence was read using a PHERAstar® plate reader with software version 5.41, and analyses were performed using GraphPad Prism 8/9."}, "full length p110α/p85α": {"target": "T2, full length p110α/p85α (Homo sapiens, UniProt P42336)", "T2 construct": "Full-length human p110α was expressed either in a complex with full-length human p85α (for HTS, biochemistry and HDX-MS); 6xHis tag followed by TEV protease site (N); host or cells: Spodoptera frugiperda Sf9, baculovirus", "T2 sequence (P42336 whole entry)": "as the sequence (P42336 whole entry N345K) above, with K345N counted along it", "T2 sequence (P27986 whole entry partner)": "as the sequence (P27986 whole entry partner) above", "assay": "Differential scanning fluorimetry", "format": "binding", "conditions": "mean ± SD, n=3; read-out: Kd for PI3Kα by differential scanning fluorimetry", "procedure": "Thermal denaturation was followed using intrinsic protein fluorescence measured with the NanoTemper Prometheus NT48 instrument (Nanotemper Technologies, München, Germany). Samples in HBS-P (Cytiva) supplemented with 5% (v/v) DMSO containing 3 μM full length p110α/p85α and a 1:2 dilution series of 1938 (from 440 μM to 13.8 nM) were loaded into standard capillaries and heated at 2 °C/min from 15 to 95 °C. The first derivative of the fluorescence emission ratio 350/330 nm were analyzed using the PR.ThermControl v2.3.1 (NanoTemper), to define the Tm. Independent experiments using the same protein and compound stocks were performed in triplicate. Data were fitted using Prism 9.4.1 (GraphPad Software Inc). Dissociation constants were calculated using fits to a single-site ligand depletion model: (2) T=T0+(T1−T0){([CT]+[PT]+[KD])−([CT]+[PT]+KD)^2−4[CT][PT]}/2[PT] where T0 and T1 are the Tm in the absence of titrating compound and at saturation respectively, [PT] and [CT] are the total concentrations of protein and compound respectively and KD is the dissociation constant."}}}
{"smiles": "CCN1CCN(c2ccc(Nc3cc(Nc4cccc5c4N(C(C)=O)CC5)ccn3)cc2)CC1", "note": "[Compound 1938]", "values": [{"measurement": "activation of N345K mutant", "setting": "PI3Kα N345K mutant", "value": "levels comparable with stimulation with pY"}, {"measurement": "Kd", "setting": "full length p110α/p85α", "value": "16 ± 2", "unit": "µM"}]}
